Earlier results, collected in patent US20020016334A1, “Pharmaceutical composition for the treatment of attention deficit hyperactivity disorder (ADHD)” (priority 2000, published 2002).

Assays:
clinical ADHD symptoms = details: humans (Levin et al. 1996)
working memory deficits = details: brain-lesioned rats (Levin et al. 1993)
[1] = tested on: performance on serial choice tasks; details: animal studies (Muir et al. 1995)

CN1CCCC1c1cccnc1 (stereo not drawn) [nicotine]
Effect on clinical ADHD symptoms by Clinical Global Impression scale (clinical ADHD symptoms): significantly improves | Effect on deficits in working memory (working memory deficits): reverse deficits in working memory | Effect on performance on serial choice tasks [1]: improves performance
